“And” between values parts separate entries of the source, which are not always exact repeats. Equal values may be shown once.
System: 994946-033-R-J1-PDC complex spheroid viability
Experiment: Anticancer human tumor 994946-033-R-J1-PDC patient-derived melanoma cell line growth inhibition [POLQ]
Conditions: for viability, T/C: stronger effect = lower value
Procedure: Multicellular complex tumor spheroid response to Polymerase (POL) inhibitors (novobiocin, ART-558, RP6685) in combination with a variety of drugs and investigational agents in selected tumor cell lines
The POL inhibitors (novobiocin, ART-558, and RP6685) were evaluated both individually and in combination with standard of care and investigational anticancer small molecules within a complex spheroid model of solid tumors. . Complex spheroids include a stromal component modeled by human endothelial cells (HUVEC) and fibroblasts modeled by human mesenchymal stem cells (MSCs). The concentration ranges selected for each drug and investigational agent were based upon clinically achievable concentrations if the clinical Cmax of the agent was known.
Compounds. The drugs and investigational agents: novobiocin (NSC847541), ART-558 (NSC835418), RP-6685 (NSC848927), peposertib (NSC802822), ceralasertib (NSC780249), elimusertib (NSC800525), camonsertib (NSC841442), AZD-1390 (NSC803789), olaparib (NSC753686), talazoparib (NSC767125), rucaparib (NSC756644), sotorasib (NSC818433), MRTX-1133 (NSC836407), SN-38 (NSC673596), topotecan (NSC609699), epotoside (NSC141540), doxorubicin (NSC123127), gemcitabine (NSC613327), 5-fluorouracil (NSC19893), paclitaxel (NSC125973), vemurafenib (NSC761431), MSA-2 (NSC828583), SN-011 (NSC837082), adavosertib (NSC754352), prexasertib (NSC758257), carboplatin (NSC241240) and oxaliplatin (NSC266046), were obtained from the National Cancer Institute (NCI) Developmental Therapeutics Program Chemical Repository (21). The FDA-approved anticancer drug set is available from the Developmental Therapeutics Program at https://dtp.cancer.gov/organization/dscb/obtaining/. […] The stock solutions were prepared in dimethyl sulfoxide (DMSO, Sigma-Aldrich, St. Louis, MO, cat. D2650), except for the platinum compounds which were prepared in saline (Quality Biological, Gaithersburg, MD, cat. 114-055-101), at 800-fold the tested concentration and stored at -70 degrees C prior to their use. All drugs and investigational agents were tested over a range starting from a high concentration at or near the clinical Cmax and decreasing in half-log increments. If the clinical Cmax for an agent had not been determined, the highest concentration tested was 10 microM, except for SN-38, which was tested at a high concentration of 1 microM.
Cell Culture. All cells were maintained in an incubator at 37 degrees C and 5% CO2 with 95% humidity. The PDC lines were cultured according to standard operating procedures established by the NCI PDMR (https://pdmr.cancer.gov). Table 3 of the manuscript, lists the cell lines along with the number of the three cell types plated to form the mct-spheroids and media for tumor cell growth. After thawing, all PDC lines, except 997537-175-T-J1-PDC and 415267-285-R-J2-PDC, were cultured in Matrigel-coated flasks prepared with a working solution of 1X Ham's F-12 nutrient mix, without supplementation (Thermo Fisher Scientific, cat. 11765054), 100 U/mL penicillin-streptomycin (Thermo Fisher Scientific, cat. 15140122), and 2.5% Matrigel (Corning Inc., Corning, NY, cat. 354248) for the first three passages. The two PDC lines 997537-175-T-J1-PDC and 415267-285-R-J2-PDC were cultured on uncoated flasks. The 857933-349-R-J2-PDC line was cultured in 6C/Colon 1B media containing advanced DMEM/F-12 (Thermo Fisher Scientific, cat. 12634028), 10 mM HEPES (Thermo Fisher Scientific, cat. 15630080), 1X GlutaMAX supplement (Thermo Fisher Scientific, cat. 35050061), 0.1 mg/mL primocin (InvivoGen, San Diego, CA, cat. ant-pm-2), 10% defined fetal bovine serum, heat inactivated (HyClone Laboratories Inc., Logan, UT, cat. SH30070.03HI), 50% L-WRN conditioned media (ATCC, cat. CRL-3276), 1.25 mM N-Acetyl-L-cysteine (Sigma-Aldrich, cat. A9165), 10 mM nicotinamide (Sigma-Aldrich, cat. N0636), 1X B-27 supplement (Thermo Fisher Scientific, cat. 17504044), 1X N-2 supplement (Thermo Fisher Scientific, cat. […]

[1] = curve of first compound, second compound 0.0316 µM
[2] = curve of first compound, second compound 0.1 µM
[3] = curve of first compound, second compound 0.316 µM
[4] = curve of first compound, second compound 1 µM
[5] = curve of first compound, second compound 3.16 µM
[6] = curve of first compound, second compound 10 µM
[7] = second compound 0.0316 µM, first compound 0.00316 µM
[8] = second compound 0.0316 µM, first compound 0.01 µM
[9] = second compound 0.0316 µM, first compound 0.0316 µM
[10] = second compound 0.0316 µM, first compound 0.1 µM
[11] = second compound 0.1 µM, first compound 0.00316 µM
[12] = second compound 0.1 µM, first compound 0.01 µM
[13] = second compound 0.1 µM, first compound 0.0316 µM
[14] = second compound 0.1 µM, first compound 0.1 µM
[15] = second compound 0.316 µM, first compound 0.00316 µM
[16] = second compound 0.316 µM, first compound 0.01 µM
[17] = second compound 0.316 µM, first compound 0.0316 µM
[18] = second compound 0.316 µM, first compound 0.1 µM
[19] = second compound 1 µM, first compound 0.00316 µM
[20] = second compound 1 µM, first compound 0.01 µM
[21] = second compound 1 µM, first compound 0.0316 µM
[22] = second compound 1 µM, first compound 0.1 µM
[23] = second compound 3.16 µM, first compound 0.00316 µM
[24] = second compound 3.16 µM, first compound 0.01 µM
[25] = second compound 3.16 µM, first compound 0.0316 µM
[26] = second compound 3.16 µM, first compound 0.1 µM
[27] = second compound 10 µM, first compound 0.00316 µM
[28] = second compound 10 µM, first compound 0.01 µM
[29] = second compound 10 µM, first compound 0.0316 µM
[30] = second compound 10 µM, first compound 0.1 µM
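Also: spheroids exposed to drugs for 7 days.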
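For viability, T/C in this document: 100% = DMSO vehicle treated spheroids.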

CCc1c2c(nc3ccc(O)cc13)-c1cc3c(c(=O)n1C2)COC(=O)[C@]3(O)CC + Nc1ccc(C#CCN(C(=O)Cc2ncc(C(F)(F)F)cc2C(F)(F)F)c2ccc(F)cc2)nn1
IC50 [1]: < 3.16 nM
IC50 [2]: < 3.16 nM
IC50 [3]: < 3.16 nM
IC50 [4]: < 3.16 nM
IC50 [5]: < 3.16 nM
IC50 [6]: < 3.16 nM
viability, T/C [7]: 27%
viability, T/C [8]: 13.4%
viability, T/C [9]: 8.88%
viability, T/C [10]: 5.83%
viability, T/C (second compound 0.0316 µM, first compound 0.316 µM): 4.85%
viability, T/C (second compound 0.0316 µM, first compound 1 µM): 1.91%
viability, T/C [11]: 23.6%
viability, T/C [12]: 11.1%
viability, T/C [13]: 7.44%
viability, T/C [14]: 6.7%
viability, T/C (second compound 0.1 µM, first compound 0.316 µM): 7.41%
viability, T/C (second compound 0.1 µM, first compound 1 µM): 2.23%
viability, T/C [15]: 29.8%
viability, T/C [16]: 10.9%
viability, T/C [17]: 8.12%
viability, T/C [18]: 7.25%
viability, T/C (second compound 0.316 µM, first compound 0.316 µM): 6.69%
viability, T/C (second compound 0.316 µM, first compound 1 µM): 2.59%
viability, T/C [19]: 20.8%
viability, T/C [20]: 12.1%
viability, T/C [21]: 6.5%
viability, T/C [22]: 9.5%
viability, T/C (second compound 1 µM, first compound 0.316 µM): 5.03%
viability, T/C (second compound 1 µM, first compound 1 µM): 2.07%
viability, T/C [23]: 26.3%
viability, T/C [24]: 16.2%
viability, T/C [25]: 8.04%
viability, T/C [26]: 6.61%
viability, T/C (second compound 3.16 µM, first compound 0.316 µM): 6.79%
viability, T/C (second compound 3.16 µM, first compound 1 µM): 1.91%
viability, T/C [27]: 28%
viability, T/C [28]: 14.1%
viability, T/C [29]: 5.91%
viability, T/C [30]: 7.41%
viability, T/C (second compound 10 µM, first compound 0.316 µM): 8.18%
viability, T/C (second compound 10 µM, first compound 1 µM): 2.64%

C#Cc1c(F)ccc2cc(O)cc(-c3ncc4c(N5CC6CCC(C5)N6)nc(OCC56CCCN5CC(F)C6)nc4c3F)c12 (stereo not drawn)
viability, T/C (compound 0.0316 µM): 78.6% and 88.4% and 92.6%
viability, T/C (compound 0.1 µM): 114% and 85.9% and 77.6%
viability, T/C (compound 0.316 µM): 100% and 90.5% and 92%
viability, T/C (compound 1 µM): 85.9% and 83.8% and 79.2%
viability, T/C (compound 3.16 µM): 77.8% and 81.5% and 90.7%
viability, T/C (compound 10 µM): 12.6% and 21.5% and 6.41%
IC50 (curve of compound): 5080 nM and 5790 nM and 5340 nM

Cn1ncnc1[C@H]1c2n[nH]c(=O)c3cc(F)cc(c23)N[C@@H]1c1ccc(F)cc1 + Nc1ccc(C#CCN(C(=O)Cc2ncc(C(F)(F)F)cc2C(F)(F)F)c2ccc(F)cc2)nn1
IC50 [1]: > 100 nM
IC50 [2]: > 100 nM
IC50 [3]: > 100 nM
IC50 [4]: > 100 nM
IC50 [5]: > 100 nM
IC50 [6]: > 100 nM
viability, T/C (second compound 0.0316 µM, first compound 0.000316 µM): 98.5%
viability, T/C (second compound 0.0316 µM, first compound 0.001 µM): 99.3%
viability, T/C [7]: 79.2%
viability, T/C [8]: 91.6%
viability, T/C [9]: 86.8%
viability, T/C [10]: 54.3%
viability, T/C (second compound 0.1 µM, first compound 0.000316 µM): 101%
viability, T/C (second compound 0.1 µM, first compound 0.001 µM): 71.5%
viability, T/C [11]: 69%
viability, T/C [12]: 93.8%
viability, T/C [13]: 59.2%
viability, T/C [14]: 65.9%
viability, T/C (second compound 0.316 µM, first compound 0.000316 µM): 110%
viability, T/C (second compound 0.316 µM, first compound 0.001 µM): 48.7%
viability, T/C [15]: 92.3%
viability, T/C [16]: 70.8%
viability, T/C [17]: 77.3%
viability, T/C [18]: 51%
viability, T/C (second compound 1 µM, first compound 0.000316 µM): 65.3%
viability, T/C (second compound 1 µM, first compound 0.001 µM): 93%
viability, T/C [19]: 71.5%
viability, T/C [20]: 72.4%
viability, T/C [21]: 59.2%
viability, T/C [22]: 55%
viability, T/C (second compound 3.16 µM, first compound 0.000316 µM): 116%
viability, T/C (second compound 3.16 µM, first compound 0.001 µM): 69.4%
viability, T/C [23]: 74.5%
viability, T/C [24]: 62%
viability, T/C [25]: 68.6%
viability, T/C [26]: 79.7%
viability, T/C (second compound 10 µM, first compound 0.000316 µM): 77.7%
viability, T/C (second compound 10 µM, first compound 0.001 µM): 91%
viability, T/C [27]: 87.3%
viability, T/C [28]: 87%
viability, T/C [29]: 67.7%
viability, T/C [30]: 57.2%

CC[C@@]1(O)C(=O)OCc2c1cc1n(c2=O)Cc2cc3c(CN(C)C)c(O)ccc3nc2-1
viability, T/C (compound 0.000316 µM): 86.1% and 53.9% and 105%
viability, T/C (compound 0.001 µM): 101% and 95.2% and 87.8%
viability, T/C (compound 0.00316 µM): 86.5% and 108% and 111%
viability, T/C (compound 0.01 µM): 71.5% and 74% and 68.2%
viability, T/C (compound 0.0316 µM): 28% and 52% and 41.7%
viability, T/C (compound 0.1 µM): 13.2% and 9.44% and 10.1%
IC50 (curve of compound): 17.6 nM and 32.8 nM and 22.1 nM

Source: PubChem BioAssay AID1963827 (Molecular Pharmacology Branch, DTP, NCI, 2024)
